pKi: −log10 of the molar value.
Columns and labels:
[1] = target: T1, Muscarinic acetylcholine receptor M5 (Homo sapiens, UniProt P08912)
T1 sequence (P08912 whole entry): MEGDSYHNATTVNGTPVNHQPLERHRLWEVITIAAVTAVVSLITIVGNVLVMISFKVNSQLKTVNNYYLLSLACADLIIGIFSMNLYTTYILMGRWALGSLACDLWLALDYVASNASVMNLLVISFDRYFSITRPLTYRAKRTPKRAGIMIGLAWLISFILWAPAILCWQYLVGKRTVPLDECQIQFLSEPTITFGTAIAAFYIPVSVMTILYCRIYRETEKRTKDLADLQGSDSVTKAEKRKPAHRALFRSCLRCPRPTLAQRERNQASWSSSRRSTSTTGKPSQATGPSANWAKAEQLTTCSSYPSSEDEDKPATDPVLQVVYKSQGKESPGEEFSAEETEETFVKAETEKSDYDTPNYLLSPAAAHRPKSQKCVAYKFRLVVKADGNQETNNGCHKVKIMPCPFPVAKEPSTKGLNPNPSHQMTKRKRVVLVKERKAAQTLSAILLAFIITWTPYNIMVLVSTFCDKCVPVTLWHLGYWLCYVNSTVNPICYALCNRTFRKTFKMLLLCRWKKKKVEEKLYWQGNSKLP

[2] = target: 5-hydroxytryptamine receptor 6 (Homo sapiens, UniProt P50406)
[3] = target: T2, Alpha-2B adrenergic receptor (Homo sapiens, UniProt P18089)
T2 sequence (P18089 whole entry): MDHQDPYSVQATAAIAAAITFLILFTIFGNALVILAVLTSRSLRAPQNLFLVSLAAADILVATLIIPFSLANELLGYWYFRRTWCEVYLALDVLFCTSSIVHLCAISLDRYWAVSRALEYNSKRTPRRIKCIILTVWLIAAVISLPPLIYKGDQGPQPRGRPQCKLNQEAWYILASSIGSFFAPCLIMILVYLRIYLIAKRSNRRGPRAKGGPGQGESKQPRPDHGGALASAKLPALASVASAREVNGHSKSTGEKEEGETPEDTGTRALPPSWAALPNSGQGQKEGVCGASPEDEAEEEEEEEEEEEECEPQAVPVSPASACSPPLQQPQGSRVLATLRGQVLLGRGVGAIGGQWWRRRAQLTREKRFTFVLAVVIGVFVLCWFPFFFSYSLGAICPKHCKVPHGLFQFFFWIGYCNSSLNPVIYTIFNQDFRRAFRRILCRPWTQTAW

[4] = target: T3, Muscarinic acetylcholine receptor M2 (Homo sapiens, UniProt P08172)
T3 sequence (P08172 whole entry): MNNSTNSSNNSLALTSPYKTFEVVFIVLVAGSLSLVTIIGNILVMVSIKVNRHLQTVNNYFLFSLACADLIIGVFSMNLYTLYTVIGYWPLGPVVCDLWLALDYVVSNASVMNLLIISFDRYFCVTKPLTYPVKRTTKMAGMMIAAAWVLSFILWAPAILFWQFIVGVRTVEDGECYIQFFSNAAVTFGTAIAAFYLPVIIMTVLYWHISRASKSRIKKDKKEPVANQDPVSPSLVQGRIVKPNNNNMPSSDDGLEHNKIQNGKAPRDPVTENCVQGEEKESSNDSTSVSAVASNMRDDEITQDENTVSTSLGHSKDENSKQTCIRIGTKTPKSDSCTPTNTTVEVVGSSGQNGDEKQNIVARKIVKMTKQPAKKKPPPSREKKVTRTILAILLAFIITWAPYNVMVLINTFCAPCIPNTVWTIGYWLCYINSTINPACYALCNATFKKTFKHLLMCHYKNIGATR

[5] = target: D(2) dopamine receptor (Rattus norvegicus, UniProt P61169)
[6] = target: T4, Muscarinic acetylcholine receptor M1 (Homo sapiens, UniProt P11229)
T4 sequence (P11229 whole entry): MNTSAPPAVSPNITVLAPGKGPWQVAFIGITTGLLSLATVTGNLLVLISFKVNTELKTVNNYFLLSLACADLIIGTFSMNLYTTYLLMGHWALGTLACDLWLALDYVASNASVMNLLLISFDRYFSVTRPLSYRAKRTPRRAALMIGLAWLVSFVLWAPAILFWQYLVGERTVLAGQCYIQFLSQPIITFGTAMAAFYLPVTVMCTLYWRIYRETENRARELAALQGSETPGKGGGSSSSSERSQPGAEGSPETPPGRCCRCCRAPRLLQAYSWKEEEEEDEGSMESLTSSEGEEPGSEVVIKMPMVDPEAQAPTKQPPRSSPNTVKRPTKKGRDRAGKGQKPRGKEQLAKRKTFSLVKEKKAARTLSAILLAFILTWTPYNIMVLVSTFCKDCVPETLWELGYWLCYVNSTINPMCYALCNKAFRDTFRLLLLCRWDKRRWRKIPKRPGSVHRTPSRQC

[7] = target: 5-hydroxytryptamine receptor 1D (Homo sapiens, UniProt P28221)
[8] = target: Sodium-dependent dopamine transporter (Bos taurus, UniProt P27922)
[9] = target: 5-hydroxytryptamine receptor 5A (Homo sapiens, UniProt P47898)
[10] = target: Muscarinic acetylcholine receptor M3 (Homo sapiens, UniProt P20309)
[11] = target: T5, Muscarinic acetylcholine receptor M4 (Homo sapiens, UniProt P08173)
T5 sequence (P08173 whole entry): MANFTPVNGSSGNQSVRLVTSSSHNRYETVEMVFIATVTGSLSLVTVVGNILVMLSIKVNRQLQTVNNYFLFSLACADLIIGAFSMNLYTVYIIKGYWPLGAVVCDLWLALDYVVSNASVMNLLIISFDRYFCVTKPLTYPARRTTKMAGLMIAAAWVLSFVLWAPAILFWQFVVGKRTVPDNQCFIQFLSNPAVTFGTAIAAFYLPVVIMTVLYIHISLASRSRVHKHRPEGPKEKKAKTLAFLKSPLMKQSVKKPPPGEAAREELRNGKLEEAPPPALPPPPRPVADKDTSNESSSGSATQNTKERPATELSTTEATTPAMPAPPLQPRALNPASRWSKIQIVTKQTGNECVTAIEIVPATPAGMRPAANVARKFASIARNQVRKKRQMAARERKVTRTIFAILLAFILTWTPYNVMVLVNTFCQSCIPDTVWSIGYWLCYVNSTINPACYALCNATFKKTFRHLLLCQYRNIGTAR

Sequence of 5-hydroxytryptamine receptor 6 (P50406 whole entry): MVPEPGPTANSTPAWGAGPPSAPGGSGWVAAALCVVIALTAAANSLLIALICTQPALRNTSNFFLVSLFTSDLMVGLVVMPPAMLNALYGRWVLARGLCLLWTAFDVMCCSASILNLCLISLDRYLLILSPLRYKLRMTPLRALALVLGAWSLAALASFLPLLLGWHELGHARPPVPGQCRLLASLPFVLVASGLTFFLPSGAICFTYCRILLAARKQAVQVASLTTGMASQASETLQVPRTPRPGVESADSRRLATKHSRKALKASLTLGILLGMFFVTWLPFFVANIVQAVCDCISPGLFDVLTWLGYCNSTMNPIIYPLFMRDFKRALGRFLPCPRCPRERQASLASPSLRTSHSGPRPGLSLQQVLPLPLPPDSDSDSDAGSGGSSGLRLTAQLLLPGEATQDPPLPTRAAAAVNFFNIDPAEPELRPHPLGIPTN
Sequence of Sodium-dependent dopamine transporter (P27922 whole entry): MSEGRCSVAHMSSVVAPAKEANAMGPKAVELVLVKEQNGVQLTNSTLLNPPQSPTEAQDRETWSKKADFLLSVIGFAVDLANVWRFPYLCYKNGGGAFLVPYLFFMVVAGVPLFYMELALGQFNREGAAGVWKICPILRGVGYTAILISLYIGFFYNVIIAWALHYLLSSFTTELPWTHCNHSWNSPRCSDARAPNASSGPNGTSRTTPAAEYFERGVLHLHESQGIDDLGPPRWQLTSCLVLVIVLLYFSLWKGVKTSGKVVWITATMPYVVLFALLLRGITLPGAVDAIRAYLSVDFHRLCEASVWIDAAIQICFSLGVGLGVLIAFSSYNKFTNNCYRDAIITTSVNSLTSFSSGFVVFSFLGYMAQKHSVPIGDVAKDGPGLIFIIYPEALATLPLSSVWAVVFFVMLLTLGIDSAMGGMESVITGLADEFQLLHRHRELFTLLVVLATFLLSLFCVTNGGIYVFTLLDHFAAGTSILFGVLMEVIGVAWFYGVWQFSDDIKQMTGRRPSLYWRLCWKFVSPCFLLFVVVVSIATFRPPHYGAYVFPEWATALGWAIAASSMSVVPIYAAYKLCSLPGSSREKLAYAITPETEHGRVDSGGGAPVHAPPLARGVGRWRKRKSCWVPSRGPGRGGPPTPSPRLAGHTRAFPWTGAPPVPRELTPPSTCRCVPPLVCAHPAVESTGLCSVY
Sequence of D(2) dopamine receptor (P61169 whole entry): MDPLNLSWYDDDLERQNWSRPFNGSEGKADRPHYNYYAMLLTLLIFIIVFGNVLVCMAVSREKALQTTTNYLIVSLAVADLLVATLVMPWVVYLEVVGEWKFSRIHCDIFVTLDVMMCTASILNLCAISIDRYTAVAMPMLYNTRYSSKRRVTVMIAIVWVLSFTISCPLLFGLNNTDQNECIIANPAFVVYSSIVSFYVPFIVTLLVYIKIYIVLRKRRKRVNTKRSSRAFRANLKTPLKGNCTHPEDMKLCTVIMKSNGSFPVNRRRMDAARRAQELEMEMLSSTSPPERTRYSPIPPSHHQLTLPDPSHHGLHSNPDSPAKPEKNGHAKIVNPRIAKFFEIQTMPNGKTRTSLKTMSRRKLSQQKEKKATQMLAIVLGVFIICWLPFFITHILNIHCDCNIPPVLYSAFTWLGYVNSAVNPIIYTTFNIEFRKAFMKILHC
Sequence of 5-hydroxytryptamine receptor 1D (P28221 whole entry): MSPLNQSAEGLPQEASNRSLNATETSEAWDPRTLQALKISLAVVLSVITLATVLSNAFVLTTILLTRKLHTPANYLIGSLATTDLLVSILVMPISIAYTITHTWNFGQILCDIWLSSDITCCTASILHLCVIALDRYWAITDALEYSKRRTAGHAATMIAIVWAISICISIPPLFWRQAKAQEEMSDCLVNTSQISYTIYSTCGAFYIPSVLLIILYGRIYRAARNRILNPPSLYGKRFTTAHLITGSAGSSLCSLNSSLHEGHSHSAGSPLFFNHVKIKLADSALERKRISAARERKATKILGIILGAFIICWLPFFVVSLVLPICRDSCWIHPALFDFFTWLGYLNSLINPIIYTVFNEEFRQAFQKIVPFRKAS
Sequence of Muscarinic acetylcholine receptor M3 (P20309 whole entry): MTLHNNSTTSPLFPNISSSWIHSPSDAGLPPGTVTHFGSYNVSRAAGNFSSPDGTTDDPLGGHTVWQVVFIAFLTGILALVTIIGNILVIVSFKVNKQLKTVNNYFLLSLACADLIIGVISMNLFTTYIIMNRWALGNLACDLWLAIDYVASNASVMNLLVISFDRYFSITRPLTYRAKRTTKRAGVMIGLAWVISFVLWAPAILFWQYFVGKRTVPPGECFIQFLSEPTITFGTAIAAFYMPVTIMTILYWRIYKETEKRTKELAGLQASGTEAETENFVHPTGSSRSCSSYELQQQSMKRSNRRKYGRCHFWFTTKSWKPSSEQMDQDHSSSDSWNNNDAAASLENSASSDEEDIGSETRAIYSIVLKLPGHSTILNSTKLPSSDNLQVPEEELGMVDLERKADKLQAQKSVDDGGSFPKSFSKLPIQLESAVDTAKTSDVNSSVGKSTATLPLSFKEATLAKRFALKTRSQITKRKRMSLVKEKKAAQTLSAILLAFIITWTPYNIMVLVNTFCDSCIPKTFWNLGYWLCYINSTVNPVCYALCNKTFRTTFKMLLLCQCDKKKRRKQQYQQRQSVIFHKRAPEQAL
Sequence of 5-hydroxytryptamine receptor 5A (P47898 whole entry): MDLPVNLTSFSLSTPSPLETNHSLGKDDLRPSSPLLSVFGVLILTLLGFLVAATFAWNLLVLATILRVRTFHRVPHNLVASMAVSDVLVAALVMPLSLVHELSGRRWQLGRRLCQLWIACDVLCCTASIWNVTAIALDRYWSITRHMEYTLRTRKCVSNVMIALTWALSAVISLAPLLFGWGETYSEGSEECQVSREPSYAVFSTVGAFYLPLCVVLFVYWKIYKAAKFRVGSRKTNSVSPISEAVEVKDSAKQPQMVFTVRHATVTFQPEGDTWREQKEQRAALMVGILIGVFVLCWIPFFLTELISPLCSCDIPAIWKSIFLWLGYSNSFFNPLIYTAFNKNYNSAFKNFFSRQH

SMILES | pKi [1] | pKi [2] | pKi [3] | pKi [4] | pKi [5] | pKi [6] | pKi [7] | pKi [8] | pKi [9] | pKi [10] | pKi [11]
C[C@@H]1O[C@@H](Oc2c(-c3ccc(O)c(O)c3)oc3cc(O)cc(=O)c-3c2O)[C@H](O)[C@H](O)[C@H]1O | < 5.00 | < 5.00 | < 5.00 | < 5.00 | < 5.00 | < 5.00 | < 5.00 | < 5.00 | < 5.00 | < 5.00 | < 5.00
CC(C)=CCC[C@]1(C)[C@@H](CC=C(C)C)C[C@]2(CC=C(C)C)C(=O)C(CC=C(C)C)C(=O)[C@]1(C(=O)C(C)C)C2=O (stereo partly specified) | < 5.00 | < 5.00 | < 5.00 | < 5.00 | < 5.00 | < 5.00 | < 5.00 | < 5.00 | < 5.00 | < 5.00 | < 5.00
O=c1c(O)c(-c2ccc(O)c(O)c2)oc2cc(O)cc(O)c12 [2-(3,4-dihydroxyphenyl)-3,5,7-trihydroxy-chromone;hydrate] | < 5.00 | < 5.00 | < 5.00 | < 5.00 | < 5.00 | < 5.00 | < 5.00 | < 5.00 | < 5.00 | < 5.00 | < 5.00

Continued, values first:

pKi [1] | pKi [2] | pKi [3] | pKi [4] | pKi [5] | pKi [6] | pKi [7] | pKi [8] | pKi [9] | pKi [10] | pKi [11] | SMILES
< 5.00 | < 5.00 | < 5.00 | < 5.00 | < 5.00 | < 5.00 | < 5.00 | < 5.00 | < 5.00 | < 5.00 | < 5.00 | O=c1cc(O)cc2oc(-c3ccc(O)c(O)c3)c(OC3OC(CO)C(O)C(O)C3O)c(O)c1-2 (stereo unspecified) [NSC_5318390]
7.45 | < 5.00 | < 5.00 | < 5.00 | < 5.00 | < 5.00 | < 5.00 | < 5.00 | < 5.00 | < 5.00 | < 5.00 | C[C@@H]1O[C@@H](OC[C@H]2O[C@@H](Oc3c(-c4ccc(O)c(O)c4)oc4cc(O)cc(O)c4c3=O)[C@H](O)[C@@H](O)[C@@H]2O)[C@H](O)[C@H](O)[C@H]1O [3-Rhamnoglucosylquercetin]
< 5.00 | < 5.00 | < 5.00 | < 5.00 | < 5.00 | < 5.00 | < 5.00 | 6.06 | < 5.00 | < 5.00 | < 5.00 | O=c1cc(O)cc2oc(-c3ccc(O)c(-c4c(O)cc(O)c5c(=O)cc(-c6ccc(O)cc6)oc45)c3)cc(O)c1-2

Source: BindingDB's records for doi:10.1007/s00213-002-1073-7 (WestfÄLische Wilhelms-Universit&Auml, 2002)
